Test results published in US9850219B1, “Phenothiazine derivatives and methods of use thereof” (Acenda Pharma, Inc., priority 2016, dated 2017).

Legend:
[1] = tested on: MCF7; experiment: Cytotoxicity, sulforhodamine B (SRB) assay, MCF7; type: cell-based, human; conditions: MCF7, Breast, 48 h
Source text: (§1) Human non-small cell lung cancer (NSCLC) cell lines (e.g., A549, H441GL and H1299), colon cancer cell lines (e.g., HCT116 and DLD1), breast cancer cell lines (e.g., MCF7 and MDA-MB-231), and pancreatic cancer cell lines (e.g., PANC-1 and SUIT-2) were used in cytotoxicity studies. These NSCLC cell lines have intrinsic resistance to epidermal growth factor receptor (EGFR) inhibitors, e.g., gefitinib. A549 and H441GL are EGFR-wild type adenocarcinoma cell lines. H1299 is an EGFR-wild type large cell carcinoma cell line. HCT116 and DLD1 are metastatic colon cell lines. MCF7 is a hormone-responsive breast cancer cell line. MDA-MB-231 is a triple-negative breast cancer cell line. PANC-1 is a metastatic adenocarcinoma cell line. SUIT-2 is a pancreatic ductal adenocarcinoma cell line.
(§2) All cell lines were grown and maintained in RPMI medium supplemented with 10% fetal bovine serum (FBS, Invitrogen), 2 mM L-glutamine, 100 U/mL penicillin, and 100 μg/mL streptomycin. For cell the culture experiment, stock solution (10 mM) of each test compound was dissolved in dimethyl sulfoxide (DMSO; Sigma).
(§3) Cells were plated in 96-well plates at a density of 2000 cells per well in triplicate. The cells in each well were treated on the third day (to ensure proper plating efficiency and vitality) with different concentrations (0-50 μM) of each test compound for 48 h.
(§4) Cell viability was assessed using the sulforhodamine B (SRB) assay. The medium was discarded, and the adherent cells were fixed by 100 μL of cold 10% trichloroacetic acid (w/v) in each well for 1 h at 4° C. After fixation, cells were stained with 100 μL/well of 0.4% (w/v, in 1% acetic acid) SRB solution for 30 min at room temperature, and then washed 5 times with 1% acetic acid. After air-drying, 100 μL of 10 mM Tris base was added to each well and the absorbance was read at 530 nm. Cytotoxicity is expressed as the percent of cells in drug treated wells relative to number of cells in the solvent only control (set to 100%). Each experiment was performed independently in triplicate and cytotoxicity IC50 value of each test compound was calculated from cytotoxicity data obtained at various concentrations.

[2] = tested on: MDA-MB-231; experiment: Cytotoxicity, sulforhodamine B (SRB) assay, MDA-MB-231; type: cell-based, human; conditions: MDA-MB-231, Breast, 48 h
Source text: as §1, §2, §3, §4

[3] = tested on: lung cancer cells; experiment: Cytotoxicity SRB assay, summary of Table 2; type: cell-based, Human; conditions: summary in words of Table 2
Source text: as §1, §3, §4
NA indicates no activity.

[4] = tested on: DLD1; experiment: Cytotoxicity, sulforhodamine B (SRB) assay, DLD1; type: cell-based, human; conditions: 48 h
Source text: as §1, §2, §3, §4

[5] = tested on: HCT116; experiment: Cytotoxicity, sulforhodamine B (SRB) assay, HCT116; type: cell-based, human; conditions: 48 h
Source text: as §1, §2, §3, §4

[6] = tested on: H1299; experiment: Cytotoxicity, sulforhodamine B (SRB) assay, H1299; type: cell-based; conditions: Homo sapiens, NCI-H1299, H1299, 48 h
Source text: as §1, with “These NSCLC cell lines have intrinsic resistance to epidermal growth factor receptor (EGFR) inhibitors, e.g., gefitinib.” left out
as §2, §3, §4

[7] = tested on: H441GL; experiment: Cytotoxicity, sulforhodamine B (SRB) assay, H441GL; type: cell-based, Human; conditions: 48 h, NA indicates no activity
Source text: as §1, with “These NSCLC cell lines have intrinsic resistance to epidermal growth factor receptor (EGFR) inhibitors, e.g., gefitinib.” left out
as §2, §3, §4

[8] = tested on: A549; experiment: Cytotoxicity, sulforhodamine B (SRB) assay, A549; type: cell-based, Human; conditions: A549, 48 h, NA indicates no activity
Source text: as §1, with “These NSCLC cell lines have intrinsic resistance to epidermal growth factor receptor (EGFR) inhibitors, e.g., gefitinib.” left out
as §2, §3, §4

[9] = tested on: SUIT-2; experiment: Cytotoxicity, sulforhodamine B (SRB) assay, SUIT-2; type: cell-based, human; conditions: SUIT-2, Pancreas, 48 h
Source text: as §1, §2, §3, §4

[10] = tested on: PANC-1; experiment: Cytotoxicity, sulforhodamine B (SRB) assay, PANC-1; type: cell-based, human; conditions: PANC-1, Pancreas, 48 h, NA = no activity
Source text: as §1, §2, §3, §4

[11] = tested on: H441GL cells; experiment: Study 1: tumor size in mouse lung cancer model; type: in vivo, NOD/SCID mice; conditions: for Tumor Size [Fold Change from Week 3 (Mean ± SD, n = 4)] Week 3 / Tumor Size [Fold Change from Week 3 (Mean ± SD, n = 4)] Week 9 / Tumor Size [Fold Change from Week 3 (Mean ± SD, n = 4)] Week 13: Study 1, 5 mg/kg/day, 5 days/week, i.p.; for Tumor Size [Fold Change from Week 3 (Mean ± SD, n = 4)] Week 3: Week 3 (baseline, start of treatment)
Description: H441GL cells (1×10^6 cells in 100 μL phosphate-buffered saline/injection) were subcutaneously injected into the right flank of NOD/SCID mice (female, 4-6 weeks old). Mice were allowed 2 weeks for tumor growth. On the first day of Week 3 post injection, tumor-bearing mice were randomly divided into control group (DMSO vehicle, intraperitoneal (i.p.) injection) and test compound treatment groups (5 mg/kg/day, 5 days/week, i.p. injection). Over the period of 10 weeks, tumorigenesis in both groups was measured using a caliper on a weekly basis. The change in tumor size was expressed as in fold change from Week 3. In this study body weight of each mouse was also recorded at the end of each study week.

[12] = Homo sapiens, DLD-1, DLD1, Colon
[13] = Homo sapiens, HCT-116, HCT116, Colon

| Compound | IC50 ([1]; Homo sapiens) [µM] | IC50 ([2]; Homo sapiens) [µM] | inhibition of cell proliferation of lung cancer cells [3] | IC50 [4, 12] [µM] | IC50 [5, 13] [µM] | IC50 [6] [µM] | IC50 ([7]; Homo sapiens) [µM] | IC50 ([8]; Homo sapiens) [µM] | IC50 ([9]; Homo sapiens) [µM] | IC50 ([10]; Homo sapiens) [µM] | also measured |
| --- | --- | --- | --- | --- | --- | --- | --- | --- | --- | --- | --- |
| COCCOCCOCCOCC(COCC(COCC(CN1CCN(CCCN2c3ccccc3Sc3ccc(C(F)(F)F)cc32)CC1)OC)OC)OC (stereo not shown) [Compound 26-1b, NDT-[CH2CH(OCH3)CH2O]3—[CH2CH2O]n—CH3] | 10.3 | 6.4 | inhibit cell proliferation | 13.9 | 8.5 | 20.4 | 12.1 | 14.4 | 12.9 | – | – |
| COCC(COCC(COCC(CN1CCN(CCCN2c3ccccc3Sc3ccc(C(F)(F)F)cc32)CC1)OC)OC)OC (stereo not shown) [Compound 24b, NDT-[CH2CH(OCH3)CH2O]3—CH3] | 9.9 | 11.3 | inhibit cell proliferation | 11.8 | 5.9 | 10.9 | 21 | 11.8 | 13.9 | 25.8 | – |
| COCCOCCOCCOCC(COCC(COCC(CN1CCN(CCCN2c3ccccc3Sc3ccc(Cl)cc32)CC1)OC)OC)OC (stereo not shown) [Compound 26-1a, NDP-[CH2CH(OCH3)CH2O]3—[CH2CH2O]n—CH3] | 14.6 | 13.5 | inhibit cell proliferation | 22.3 | 11.2 | 24.9 | 12.1 | 11.2 | 25.8 | 15.8 | – |
| COCCOCCOCCOCCOCCOCCOCCOCCOCCOCC(COCC(COCC(CN1CCN(CCCN2c3ccccc3Sc3ccc(C(F)(F)F)cc32)CC1)OC)OC)OC (stereo not shown) [Compound 26-2b, NDT-[CH2CH(OCH3)CH2O]3—[CH2CH2O]n—CH3] | 10 | 12.5 | inhibit cell proliferation | 19.2 | 8.9 | 25.3 | 12.1 | 15.6 | 17.2 | 12.9 | – |
| OCC(O)COCC(O)COCC(O)CN1CCN(CCCN2c3ccccc3Sc3ccc(Cl)cc32)CC1 (stereo not shown) [Compound 33a, NDP-[CH2CH(OH)CH2O]3—H] | 26 | 24.2 | inhibit cell proliferation | 35.2 | 20.2 | 28.4 | 25 | 35.2 | 34 | 30.2 | – |
| OCC(O)COCC(O)COCC(O)CN1CCN(CCCN2c3ccccc3Sc3ccc(C(F)(F)F)cc32)CC1 (stereo not shown) [Compound 33b, NDT-[CH2CH(OH)CH2O]3—H] | 13.8 | 14.8 | inhibit cell proliferation | 26.4 | 14.9 | 20.8 | 17.9 | 19.8 | 25.7 | 23.5 | – |
| COCCOCCOCCOCCOCCOCCOC(=O)N1CCN(CCCN2c3ccccc3Sc3ccc(C(F)(F)F)cc32)CC1 [Compound 5-2b, NDT-CO—O—[CH2CH2O]6—CH3] | – | – | inhibit cell proliferation | – | – | – | – | – | – | – | IC50 [1]: 12 µM; IC50 [2]: 15.8 µM; IC50 ([4]; DLD1, Colon): 15.2 µM; IC50 ([5]; HCT116, Colon): 7.3 µM; IC50 [7]: 2.7 µM; IC50 [8]: 3.2 µM; IC50 [9]: 10.8 µM; IC50 [10]: 12.5 µM; effect on tumor growth as compared to the vehicle control ([11]; Study 1, 5 mg/kg/day i.p., in words): largest effect of suppressing tumor growth; Tumor Size [Fold Change from Week 3 (Mean ± SD, n = 4)] Week 3 [11]: 1 ± 0 Fold Change; Tumor Size [Fold Change from Week 3 (Mean ± SD, n = 4)] Week 9 [11]: 23.4 ± 7.5 Fold Change; Tumor Size [Fold Change from Week 3 (Mean ± SD, n = 4)] Week 13 [11]: 51.6 ± 17.6 Fold Change |
| COCCOCCOCCOCCOCCOCCOCCOCCOCCOCCOCCOCCOC(=O)N1CCN(CCCN2c3ccccc3Sc3ccc(C(F)(F)F)cc32)CC1 [Compound 5-3b, NDT-CO—O—[CH2CH2O]12—CH3] | – | – | inhibit cell proliferation | – | – | – | – | – | – | – | IC50 [1]: 8.3 µM; IC50 [2]: 9.2 µM; IC50 ([4]; DLD1, Colon): 18.2 µM; IC50 ([5]; HCT116, Colon): 7.9 µM; IC50 [7]: 1.6 µM; IC50 [8]: 2.7 µM; IC50 [9]: 10.8 µM; IC50 [10]: 3.6 µM; Tumor Size [Fold Change from Week 3 (Mean ± SD, n = 4)] Week 3 [11]: 1 ± 0 Fold Change; Tumor Size [Fold Change from Week 3 (Mean ± SD, n = 4)] Week 9 [11]: 33.4 ± 8.2 Fold Change; Tumor Size [Fold Change from Week 3 (Mean ± SD, n = 4)] Week 13 [11]: 79.4 ± 20.3 Fold Change |
| COCCOCCOCCOCCOCCOCCOCCOCCOCCOCC(COCC(COCC(CN1CCN(CCCN2c3ccccc3Sc3ccc(Cl)cc32)CC1)OC)OC)OC (stereo not shown) [Compound 26-2a, NDP-[CH2CH(OCH3)CH2O]3—[CH2CH2O]n—CH3] | 24.2 | 16.3 | inhibit cell proliferation | 32.8 | 13.3 | 42.6 | 25.4 | 23.8 | 26.9 | 27.9 | – |
